Key:
[1] = tested on: rats; assay: Antiulcer: stress induced gastric ulcers in rats; assay type: in vivo, rat; settings: for inhibition in vivo at 50 mg/kg: 4 hr. following a 50 mg/kg oral dose in rats, significance >60, read-out: U = Antiulcerative: percent inhibition of stress ulcers
Procedure: Fasted rats were dosed, p.o., 30 minutes before immobilization in wire mesh and partial immersion in water for 4 hours. Inhibition of the resulting stress induced gastric ulcers by more than 60% (>60) indicates activity.
^6 U = Antiulcerative. Percent inhibition of stress ulcers 4 hr.
following a 50 mg/kg oral dose in rats.

[2] = tested on: mice; assay: Pupil dilation in mice; assay type: in vivo, mouse; settings: i.p.; for Reference dose, pupil dilation: reference compounds and the doses thereof
Procedure: If the pupil diameter of mice exceeds 1.0 mm (>1) in bright light 30 minutes after dosing, i.p., ganglionic blockage or anti-cholinergic activity is indicated in the absence of adrenergic action. The following are reference compounds and the doses thereof.

[3] = tested on: mice; assay: Antiarrhythmic: chloroform-induced cardiac arrhythmia in mice; assay type: in vivo, mouse; settings: for A = Antiarrythmic: mouse hearts fibrillating (of 3): 15 min. after a 200 mg/kg intraperitoneal dose, significance <2
Procedure: ^2 A = Antiarrythmic. Less than 2/3 mouse hearts fibrillating 15 min.

[4] = tested on: hypercholesterolemic mice; assay: Hypocholesterolemic: serum cholesterol in hypercholesterolemic mice; assay type: in vivo, mouse; settings: hypercholesterolemic mice; for inhibition in vivo at 200 mg/kg / ED100: Mus musculus; for inhibition in vivo at 200 mg/kg: 2 oral doses of 200 mg/kg 20 hr. apart, significance >20, read-out: C = Hypocholesterolemic: percent decrease in serum cholesterol; for ED100: po, read-out: ED-100, hypocholesterolemic
Procedure: Mice made hypercholesterolemic by being fed a high cholesterol-cholic acid diet for 7 days were dosed on the sixth and seventh days, p.o. After fasting overnight, reduction in serum cholesterol concentration by more than 15% (>15) from hypercholesterolemic control mice indicates activity.
^4 C = Hypocholesterolemic. Percent decrease in serum cholesterol in
hypercholesterolemic mice given 2 oral doses of 200 mg/kg drug candidate

[5] = tested on: spontaneously hypertensive rats (SHR); assay: Antihypertensive: blood pressure (tail cuff) in spontaneously hypertensive rats (SHR); assay type: in vivo, rat; settings: for inhibition in vivo at 100 mg/kg: 6 hr. after a 100 mg/kg oral dose, significance >10, read-out: Antihypertensive: percent decrease in systolic blood pressure in spontaneously hypertensive rats
Procedure: Blood pressure was measured indirectly (tail cuff) in unanesthetized, unheated spontaneously hypertensive rats (SHR) before and 2, 4, and 6 hours after p.o. dosing. Reduction in mean pressure by more than 10% (>10) at any two consecutive measurement times after dosing indicates antihypertensive activity.

[6] = tested on: hypercholesterolemic mice; assay: HP-betalipoprotein: serum heparin precipitating lipoprotein (HPL); assay type: in vivo, mouse; settings: hypercholesterolemic mice; for ED100: Mus musculus, po, read-out: ED-100, HP-betalipoprotein
Description: Reduction of serum heparin precipitating lipoprotein (HPL) concentrations (corresponding to low density lipoprotein and very low density lipoprotein fractions) in the same hypercholesterolemic mice from Test 6 above by more than 20% (>20) from control animals indicates activity.

[7] = tested on: rats; assay: Bradycardia: heart rate by EKG in rats; assay type: in vivo, rat; settings: Rattus norvegicus, 0.75 h; 45 min. after a 5 mg/kg oral dose in rats; significance >10; read-out: B = Bradycardiac: percent decrease in heart rate
Procedure: […] Decrease in heart rate by more than 10% (>10) is considered a bradycardic effect.
Percent decrease in heart rate 45 min. after a 5
mg/kg oral dose in rats.

[8] = tested on: mice; assay: Acute toxicity / autonomic effects observation; settings: mouse, in vivo
Procedure: Mice were dosed at 300 mg/kg, per oral (p.o.) and […], interperitoneal (i.p.) for observation of any acute toxic symptoms or autonomic effects during the subsequent 72 hours. If none were noted, pharmacological evaluation proceeded employing doses and concentrations for each test based on appropriate multiples of doses required by suitable reference compounds. If acute toxicity was observed initially, the minimal toxic dose was determined and pharmacological screening doses were reduced proportionately.

[9] = tested on: glucose-loaded mice; assay: Hypoglycemic, glucose-loaded mice; assay type: in vivo, mouse; settings: for H = Hypoglycemic: percent decrease in serum glucose concentration: glucose loaded mice, 100 mg/kg oral dose, significance >20; for ED100: Mus musculus, po, 1 h, p.o., reference compounds, read-out: ED-100, hypoglycemic, mice
Procedure: Reduction in blood glucose concentration by more than 20% (>20) in fasted, glucose-loaded (1 gm/kg) mice one hour after dosing, p.o., indicates activity (test compound administered at same time as glucose load).
^5 H = Hypoglycemic. Percent decrease in serum glucose concentration
in glucose loaded mice hr. following a 100 mg/kg oral dose.

[10] = Anticholinergic properties (overall statement); settings: in vivo
[11] = Central nervous system (CNS) depression/effects; settings: in vivo
[12] = tested on: mice; assay: Central anticholinergic: oxotremorine tremors in mice; settings: Mus musculus, ip, 1 h, read-out: ED-100, central anticholinergic
[13] = tested on: mice; assay: Peripheral anticholinergic: lacrimation and salivation in mice; assay type: in vivo; settings: Mus musculus, ip, read-out: ED-100, peripheral anticholinergic
[14] = tested on: rats; assay: Antiedema: carrageenan paw edema in rats; assay type: in vivo; settings: Rattus norvegicus, po, 3 h, read-out: ED-100, antiedema
Procedure: Rats are dosed p.o. one hour before intraplantar injection of carrigeenan (0.1 ml, 1% susp.). Inhibition of paw edema by more than 30% (>30) 3 hours after carriegeenan injection indicates acute anti-edema activity.

[15] = tested on: starch loaded mice; assay: Carbohydrate (CHO) efficiency/hypoglycemic, starch loaded mice; assay type: in vivo, mouse; settings: for ED100: Mus musculus, 1 h, oral, reference compounds, read-out: ED-100, CHO efficiency/hypoglycemic
[16] = p.o., rats, reference compounds

Cc1cccc(N2CC(CN3C(C)(C)CCCC3(C)C)=CC2=O)c1 [Compound 4]
inhibition in vivo at 50 mg/kg ([1]; Rattus norvegicus): 75% | Pupil dilation ([2]; 50 mg/kg): significantly dilated | A = Antiarrythmic: mouse hearts fibrillating (of 3) [3]: 2 | Dose with borderline antiarrhythmic result ([3]; i.p., mice, chloroform arrhythmia): 100 mg/kg | inhibition in vivo at 200 mg/kg [4]: 25% | inhibition in vivo at 100 mg/kg ([5]; Rattus norvegicus): 23% | Antihypertensive activity, onset / comparison in words ([5]; p.o.): generally comparable to that of Compound 3 | Dose at which antihypertensive effects were decreasing ([5]; p.o.): 10 mg/kg | HPL/cholesterol ratio ([6]; 400 mg/kg, p.o.): marked reduction | inhibition in vivo at 5 mg/kg [7]: 19%

CC1(C)CCCC(C)(C)N1CC1=CC(=O)N(c2ccccc2)C1 [Compound 6]
inhibition in vivo at 50 mg/kg ([1]; Rattus norvegicus): 75% | Autonomic effect / autonomic inhibition [8]: little evidence of autonomic effect | H = Hypoglycemic: percent decrease in serum glucose concentration [9]: 29% | A = Antiarrythmic: mouse hearts fibrillating (of 3) [3]: 3 | inhibition in vivo at 200 mg/kg [4]: 12% | inhibition in vivo at 100 mg/kg ([5]; Rattus norvegicus): 18% | inhibition in vivo at 5 mg/kg [7]: 20%

CC1(C)CCCC(C)(C)N1CC1=CC(=O)N(c2ccccc2Cl)C1 [Compound 9]
inhibition in vivo at 50 mg/kg ([1]; Rattus norvegicus): 100% | Ganglionic blockade as cause of pupillary dilation ([2]; 25 mg/kg): does not appear to reflect ganglionic blockade | Pupil dilation ([2]; 25 mg/kg): Pupillary dilation was again noted | Anticholinergic properties/effects [10]: not likely anticholinergic in nature | H = Hypoglycemic: percent decrease in serum glucose concentration [9]: 27% | A = Antiarrythmic: mouse hearts fibrillating (of 3) [3]: 0 | inhibition in vivo at 200 mg/kg [4]: 0% | inhibition in vivo at 100 mg/kg ([5]; Rattus norvegicus): 31% | inhibition in vivo at 5 mg/kg [7]: 18%

CC1(C)CCCC(C)(C)N1CC1=CC(=O)N(c2cccc(Cl)c2)C1 [Compound 13]
inhibition in vivo at 50 mg/kg ([1]; Rattus norvegicus): 88% | CNS depression / CNS effects [11]: absence of CNS | Acute toxicity / toxic effects [8]: absence | Anticholinergic properties/effects [10]: absence | A = Antiarrythmic: mouse hearts fibrillating (of 3) [3]: 3 | inhibition in vivo at 200 mg/kg [4]: 13% | inhibition in vivo at 100 mg/kg ([5]; Rattus norvegicus): 4% | inhibition in vivo at 5 mg/kg [7]: 1%

CC1(C)CCCC(C)(C)N1CC1=CC(=O)N(c2cccc(C#N)c2)C1 [Compound 15]
inhibition in vivo at 50 mg/kg ([1]; Rattus norvegicus): 88% | Antiulcer effect, in words ([1]; rat, in vivo): unusual and strong activity | CNS depression / CNS effects [11]: absence of CNS depression | Acute toxicity / toxic effects [8]: absence | Anticholinergic properties/effects [10]: absence | A = Antiarrythmic: mouse hearts fibrillating (of 3) [3]: 3 | inhibition in vivo at 200 mg/kg [4]: 15% | inhibition in vivo at 100 mg/kg ([5]; Rattus norvegicus): 19% | inhibition in vivo at 5 mg/kg [7]: 0%

c1cc(N2CCCCC2)ccc1OC12CC3CC(CC(C3)C1)C2 [Compound U-41792, reference compound]
ED-100, hypocholesterolemic ([4]; p.o., reference compounds): 200 mg/kg | ED-100, HP-betalipoprotein ([6]; reference compounds): 200 mg/kg

N[C@H](Cc1cc(I)c(Oc2cc(I)c(O)c(I)c2)c(I)c1)C(=O)O [D-thyroxine, reference compound]
ED100 ([4]; reference compounds): 10 mg/kg | ED100 ([6]; reference compounds): 10 mg/kg

CN(C)CCC=C1c2ccccc2CCc2ccccc21 [amitriptyline]
ED100 [12]: 10 mg/kg | ED100 ([13]; mice, reference compounds): 25 mg/kg

CC(=O)Oc1ccccc1C(=O)O [aspirin]
ED100 [14]: 150 mg/kg

CN1[C@@H]2CC[C@H]1C[C@@H](OC(=O)C(CO)c1ccccc1)C2 (stereo partly shown) [atropine, reference compound]
ED100 ([1]; Rattus norvegicus, po, read-out: ED-100, antiulcer): 5 mg/kg | Reference dose, pupil dilation [2]: 0.25 mg/kg | ED100 [12]: 2 mg/kg | ED100 [13]: 0.25 mg/kg

CC(C)(Oc1ccc(CCNC(=O)c2ccc(Cl)cc2)cc1)C(=O)O [bezafibrate, reference compound]
ED100 ([4]; reference compounds): 200 mg/kg | ED100 ([6]; reference compounds): 200 mg/kg

CN1CCN(C2=Nc3cc(Cl)ccc3Nc3ccccc32)CC1 [clozapine]
ED100 [12]: 10 mg/kg | ED100 ([13]; mice, reference compounds): 10 mg/kg

CC/C(=C(/CC)c1ccc(O)cc1)c1ccc(O)cc1 [diethylstilbestrol, reference compound]
ED100 ([4]; reference compounds): 200 mg/kg | ED100 ([6]; reference compounds): 200 mg/kg

O=C(O)c1cc(-c2ccc(F)cc2F)ccc1O [diflunisal]
ED100 [14, 16]: 25 mg/kg

COc1ccc(Cl)cc1C(=O)NCCc1ccc(S(=O)(=O)NC(=O)NC2CCCCC2)cc1 [glibenclamide, reference compound]
ED100 [15]: 1 mg/kg | ED100 ([9]; glucose-loaded mice): 1 mg/kg

C[C@]12CCC(=O)C=C1CC[C@@H]1[C@@H]2[C@@H](O)C[C@@]2(C)[C@H]1CC[C@]2(O)C(=O)CO [hydrocortisone]
ED100 [14]: 25 mg/kg

CC(C)Cc1ccc(C(C)C(=O)O)cc1 (stereo not shown) [ibuprofen]
ED100 [14, 16]: 25 mg/kg

COc1ccc2c(c1)c(CC(=O)O)c(C)n2C(=O)c1ccc(Cl)cc1 [indomethacin]
ED100 [14]: 4 mg/kg

CC(C(=O)O)c1cccc(C(=O)c2ccccc2)c1 (stereo not shown) [ketoprofen]
ED100 [14]: 5 mg/kg

CNC1(C)C2CCC(C2)C1(C)C (stereo not shown) [mecamylamine, reference compound]
Reference dose, pupil dilation [2]: 2.5 mg/kg | ED100 ([5]; Rattus norvegicus, po, SHR, reference compounds, read-out: ED-100, antihypertensive): 10 mg/kg

COc1ccc2cc([C@H](C)C(=O)O)ccc2c1 [naproxen]
ED100 [14, 16]: 5 mg/kg

[H]/N=C(/N)N/C(=N/[H])NCCc1ccccc1 [phenformin, reference compound]
ED100 [15]: 100 mg/kg | ED100 ([9]; glucose-loaded mice): 100 mg/kg

CCCCC1C(=O)N(c2ccccc2)N(c2ccccc2)C1=O [phenylbutazone]
ED100 [14, 16]: 50 mg/kg

CCCCNC(=O)NS(=O)(=O)c1ccc(C)cc1 [tolbutamide, reference compound]
ED100 [15]: 50 mg/kg | ED100 ([9]; glucose-loaded mice): 50 mg/kg

OC(CCN1CCCCC1)(c1ccccc1)C1CCCCC1 (stereo not shown) [trihexyphenidyl]
ED100 [12]: 10 mg/kg | ED100 ([13]; mice, reference compounds): 2.5 mg/kg

insulin
ED-100, CHO efficiency/hypoglycemic (insulin) ([15]; subcutaneous (s.c.)): 0.25 U | ED-100, hypoglycemic, mice (insulin) ([9]; s.c., glucose-loaded mice): 0.25 U

Source: US4469701A, “Pyrrolid-3-en-2-ones and pharmaceutical methods of use thereof” (Stauffer Chemical Company, priority 1983, dated 1984)
